Tests used:
[1] = target: T1, bovine fibrinogen (Bos taurus, UniProt P02672+P02676+P12799); test: intrinsic Trp fluorescence quenching; assay type: binding; details: 0.8 mg/ml fibrinogen, Tyrode buffer pH 7.4, 37 °C, 15 min
T1 construct: gene FGA; native plasma protein, Sigma-Aldrich; hexamer
T1 sequence (P02672 20-615): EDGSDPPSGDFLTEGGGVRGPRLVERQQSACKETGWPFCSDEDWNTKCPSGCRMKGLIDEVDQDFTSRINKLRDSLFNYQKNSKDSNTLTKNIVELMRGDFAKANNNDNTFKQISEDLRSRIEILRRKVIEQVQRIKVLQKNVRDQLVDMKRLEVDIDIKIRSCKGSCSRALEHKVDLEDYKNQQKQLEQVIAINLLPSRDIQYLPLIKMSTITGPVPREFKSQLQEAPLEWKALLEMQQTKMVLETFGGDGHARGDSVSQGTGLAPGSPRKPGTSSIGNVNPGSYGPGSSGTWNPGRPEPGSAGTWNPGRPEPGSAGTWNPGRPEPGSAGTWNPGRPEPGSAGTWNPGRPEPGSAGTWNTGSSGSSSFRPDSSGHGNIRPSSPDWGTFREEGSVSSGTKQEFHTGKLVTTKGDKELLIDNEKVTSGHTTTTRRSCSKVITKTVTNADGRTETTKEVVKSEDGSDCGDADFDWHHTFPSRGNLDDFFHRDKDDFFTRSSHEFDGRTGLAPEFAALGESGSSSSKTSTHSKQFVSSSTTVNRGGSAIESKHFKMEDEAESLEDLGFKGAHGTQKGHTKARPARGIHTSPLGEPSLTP
T1 sequence (P02676 1-468): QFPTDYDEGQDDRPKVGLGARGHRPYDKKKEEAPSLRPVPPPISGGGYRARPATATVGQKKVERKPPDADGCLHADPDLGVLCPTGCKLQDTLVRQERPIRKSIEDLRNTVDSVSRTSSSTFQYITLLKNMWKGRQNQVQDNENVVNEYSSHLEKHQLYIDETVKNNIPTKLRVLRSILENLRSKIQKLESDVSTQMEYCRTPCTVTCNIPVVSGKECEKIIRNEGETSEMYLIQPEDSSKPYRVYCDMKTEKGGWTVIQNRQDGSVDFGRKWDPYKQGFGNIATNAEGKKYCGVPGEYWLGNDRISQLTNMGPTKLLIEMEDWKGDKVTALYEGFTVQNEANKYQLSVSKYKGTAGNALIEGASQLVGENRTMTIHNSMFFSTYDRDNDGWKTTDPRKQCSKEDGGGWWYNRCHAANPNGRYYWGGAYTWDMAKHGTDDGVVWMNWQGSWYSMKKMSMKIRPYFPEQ
T1 sequence (P12799 25-444): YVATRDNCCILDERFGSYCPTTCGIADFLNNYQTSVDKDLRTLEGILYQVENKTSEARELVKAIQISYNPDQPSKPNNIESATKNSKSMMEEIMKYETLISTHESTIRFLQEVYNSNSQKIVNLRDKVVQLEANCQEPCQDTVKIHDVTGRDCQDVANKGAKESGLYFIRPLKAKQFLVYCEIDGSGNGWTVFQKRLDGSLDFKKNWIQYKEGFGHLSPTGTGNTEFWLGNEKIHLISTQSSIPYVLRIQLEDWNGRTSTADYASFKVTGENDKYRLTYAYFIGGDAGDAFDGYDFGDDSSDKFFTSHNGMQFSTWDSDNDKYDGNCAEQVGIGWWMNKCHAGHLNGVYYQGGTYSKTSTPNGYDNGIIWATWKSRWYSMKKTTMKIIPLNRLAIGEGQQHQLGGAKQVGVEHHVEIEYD

[2] = target: T2, bovine serum albumin (BSA) (Bos taurus, UniProt P02769); test: intrinsic Trp fluorescence quenching; assay type: binding; details: 0.8 mg/ml BSA, Tyrode buffer pH 7.4, 37 °C, 15 min
T2 construct: gene ALB; native mature serum albumin
T2 sequence (P02769 25-607): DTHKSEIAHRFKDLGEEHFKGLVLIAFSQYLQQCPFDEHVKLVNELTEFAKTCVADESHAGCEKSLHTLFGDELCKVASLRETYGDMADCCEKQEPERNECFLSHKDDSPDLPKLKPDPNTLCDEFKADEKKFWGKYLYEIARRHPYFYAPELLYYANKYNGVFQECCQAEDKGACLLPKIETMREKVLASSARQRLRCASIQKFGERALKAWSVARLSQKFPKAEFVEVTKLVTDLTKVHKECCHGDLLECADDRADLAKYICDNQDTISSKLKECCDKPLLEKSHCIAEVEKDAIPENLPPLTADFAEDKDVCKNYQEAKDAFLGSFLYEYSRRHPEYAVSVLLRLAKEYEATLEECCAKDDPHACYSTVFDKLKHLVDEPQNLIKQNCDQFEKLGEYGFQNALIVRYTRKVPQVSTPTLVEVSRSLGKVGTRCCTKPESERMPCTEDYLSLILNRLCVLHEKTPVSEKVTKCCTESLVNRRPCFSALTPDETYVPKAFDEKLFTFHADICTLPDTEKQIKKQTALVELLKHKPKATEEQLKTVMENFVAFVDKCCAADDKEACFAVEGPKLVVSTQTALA

Q: `C[C@@H]1O[C@@H](OC[C@H]2O[C@@H](Oc3c(-c4ccc(O)c(O)c4)oc4cc(O)cc(O)c4c3=O)[C@H](O)[C@@H](O)[C@@H]2O)[C@H](O)[C@H](O)[C@H]1O` [rutin] was tested. Which “intrinsic Trp fluorescence quenching” value [1] did it give?
A: The value was “Pre-incubation of rutin and RS with fibrinogen (Figures 6A,B) or albumin (Figures 6C,D) decreased the fluorescence”.

Q: And the “intrinsic Trp fluorescence quenching” value [2]?
A: The value was “or albumin (Figures 6C,D) decreased the fluorescence of their Trp residues”.
